Measured values taken from patent US9289421B2, “Methods and compositions for reducing serum levels of immunoglobulin E (IgE)” (priority 2011, dated 2016).
Entries after “also recorded” stand apart in the source; their conditions may differ.

Assays:
[1] = tested on: serum levels of total IgE; assay: Total serum IgE by ELISA, OVA/ALUM sensitization and boost in C57BL/6 and CB2-/- mice; type: in vivo, C57BL/6 (B6) and CB2-/- mice; conditions: for serum levels of total IgE: THC pretreatment
Description: FIG. 4 is a graph illustrating that serum levels of total IgE were increased with THC pretreatment over C57BL/6 (B6) mice; CB2 deficient mice (CB2^−/−) over B6; and THC pretreatment CB2^−/− over B6 and THC/B6. SR141716A (SR1; CB1 antagonist) pretreatment of CB2^−/− had little effect on total IgE levels. The mice were treated OVA/ALUM following a boost of same antigen. The sera were collected at Day 5-6 after the boost and ELISAs were performed. Data represent serum from individual mice (4-9 mice/group+/−SEM). *=p≦0.05 from Normal; #=p≦0.05 from OVA/ALUM; ##=p<0.05 from THC/OVA/ALUM
(§1) In in vivo IgE-induction models using OVA/Alum or KLH/Ribi, the role of GPR55, in cannabinoid effects on antibody production has been investigated. BALB/c (B/c), C57BL/6 (B6), or B6 CB2 deficient (CB2^−/−) mice were pretreated with THC or L-α-lysophosphatidylinositol (LPI) prior to injections with OVA/Alum or KLH/Ribi, followed by boosting with same antigens. The mice were then bled on various days after boosting and total serum IgE was determined.

[2] = tested on: serum levels of total IgE; assay: Total serum IgE by ELISA, OVA/ALUM sensitization and boost in BALB/c mice; type: in vivo; conditions: for IgE levels: THC- or LPI-pretreated B/c mice, OVA/Alum
Description: as §1
Mice were pretreated with SR2/Gp1a, Gp1a, or not pretreated, and 18 hrs later were sensitized with OVA/ALUM followed by a boost with same antigen. The sera were collected 6 days after the antigen boost injection and ELISAs were performed for IgE. Data represent sera from 4-8 mice/group+/−SEM. *=p≦0.05 from Normal; #=p≦0.05 from OVA/ALUM or SR2/OVA/ALUM.

total serum IgE [3] = assay: Total serum IgE, KLH/RIBI IgE-induction model in B6 and CB2-/- mice; type: in vivo, C57BL/6 (B6) and CB2-/- mice; conditions: compared with OVA/ALUM
Description: as §1

total serum IgE [4] = assay: Total serum IgE, KLH/Ribi IgE-induction model in BALB/c mice; type: in vivo; conditions: THC-treated B/c mice
Description: as §1

With `Cc1c(C(=O)NN2CCCCC2)nn(-c2ccc(Cl)cc2Cl)c1-c1ccc(Cl)cc1` [SR141716A] the IgE response ([1]; B6 and CB2-/- mice, CB1 antagonist given prior to THC dosing) was “only slightly elevated” and the “total IgE levels” value ([1]; CB2-/- mice, SR1 pretreatment, OVA/ALUM) was “little effect”.
With L-α-lysophosphatidylinositol [LPI] the IgE levels [2] was “enhanced”.
For `Cc1ccc2c(c1)Cc1c(C(=O)NN3CCCCC3)nn(-c3ccc(Cl)cc3Cl)c1-2` [Gp1a, N-(Piperidin-1-yl)-1-(2,4-dichlorophenyl)-1,4-dihydro-6-methylindeno[1,2-c]pyrazole-3-carboxamide], the “serum levels of total IgE” value ([2]; BALB/c mice, pretreated 18 hrs before OVA/ALUM, sera 6 days after boost) was “attenuates; also recorded: caused a decrease in IgE”.
`CCCCCc1cc(O)c2c(c1)OC(C)(C)[C@@H]1CCC(C)=C[C@@H]21` [THC, Δ^9-tetrahydrocannabinol] was tested, and the “serum levels of total IgE” value ([1]; C57BL/6 (B6) mice, OVA/ALUM, sera Day 5-6 after boost) was “increased”, the “serum levels of total IgE” value ([1]; CB2-/- mice, OVA/ALUM, vs B6 and THC/B6) was “increased; also recorded: augmented this effect” and the IgE levels (total serum IgE [3]) was “increased IgE levels greater than OVA/ALUM”. For the same compound, the IgE levels (total serum IgE [4]) was “elevated” and the IgE levels [2] was “elevated”.
For `Cc1ccc(Cn2nc(C(=O)N[C@@H]3C(C)(C)[C@@H]4CC[C@@]3(C)C4)cc2-c2ccc(Cl)c(C)c2)cc1` [SR144528, 5-(4-chloro-3-methylphenyl)-1-[(4-methylphenyl)methyl]-N-[(1S,2S,4R)-1,3,3-trimethylbicyclo[2.2.1]hept-2-yl]-1H-pyrazole-3-carboxamide], the “effect on the Gp1a attenuation of serum total IgE” value ([2]; BALB/c mice, co-treatment with Gp1a (SR2/Gp1a), OVA/ALUM) was “reversed; also recorded: reverses the Gp1a effect”.
